# Measurements published in PubChem BioAssay AID200 (DTP/NCI, 2004).
# Where “and” joins values, the source holds several entries; their conditions need not be identical. Equal values may be shown once. Toxic doses and inconclusive results are not listed.
# System: B6C3F1 mice, B16 melanoma ip, median survival T/C
# Assay: NCI In Vivo Anticancer Drug Screen. Data for tumor model B16 Melanoma (intraperitoneal) in B6C3F1 mice
# Details: endpoint: median survival time, higher = longer survival
# Summary of the method: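 Readout: survival or tumor size in treated mice relative to vehicle controls (T/C). Model uses transplantable tumors grown in mice.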
# [1] = dose: 25.0 mg/kg/injection, schedule: Q01DX009 (ip), vehicle: saline with Tween-80
# [2] = dose: 50.0 mg/kg/injection, schedule: Q01DX009 (ip), vehicle: saline with Tween-80
# [3] = dose: 100.0 mg/kg/injection, schedule: Q01DX009 (ip), vehicle: saline with Tween-80
# [4] = dose: 200.0 mg/kg/injection, schedule: Q01DX009 (ip), vehicle: saline with Tween-80
compound,measurement,setting,value
COC1CC(C)C(OC)c2cc(O)cc(c2O)NC(=O)/C(C)=C/C=C\C(C)C(OC(N)=O)/C(C)=C\C(C)C1OC (configuration not stated),T/C,"dose: 0.31 mg/kg/injection, schedule: Q01DX005 (iv), vehicle: other",94 % of control
same,T/C,"dose: 0.31 mg/kg/injection, schedule: Q01DX009 (ip), vehicle: other",109 % of control
same,T/C,"dose: 0.31 mg/kg/injection, schedule: Q01DX009 (ip), vehicle: saline with Tween-80",98 % of control
same,T/C,"dose: 0.62 mg/kg/injection, schedule: Q01DX005 (iv), vehicle: other",101 % of control
same,T/C,"dose: 0.62 mg/kg/injection, schedule: Q01DX009 (ip), vehicle: saline with Tween-80",112 % of control
same,T/C,"dose: 1.25 mg/kg/injection, schedule: Q01DX005 (iv), vehicle: other",93 % of control
same,T/C,"dose: 1.25 mg/kg/injection, schedule: Q01DX009 (ip), vehicle: other",117 % of control
same,T/C,"dose: 2.5 mg/kg/injection, schedule: Q01DX005 (iv), vehicle: other",102 % of control
same,T/C,"dose: 2.5 mg/kg/injection, schedule: Q01DX009 (ip), vehicle: other",119 % of control
same,T/C,"dose: 5.0 mg/kg/injection, schedule: Q01DX005 (iv), vehicle: other",95 % of control
same,T/C,"dose: 5.0 mg/kg/injection, schedule: Q01DX009 (ip), vehicle: saline with Tween-80",171 % of control
same,T/C,"dose: 10.0 mg/kg/injection, schedule: Q01DX005 (iv), vehicle: other",109 % of control
same,T/C,"dose: 10.0 mg/kg/injection, schedule: Q01DX009 (ip), vehicle: other",114 % of control
OCCCN1CCCCC1CO (configuration not stated),T/C,"dose: 12.5 mg/kg/injection, schedule: Q01DX009 (ip), vehicle: saline",94 % of control
same,T/C,"dose: 25.0 mg/kg/injection, schedule: Q01DX009 (ip), vehicle: saline",106 % of control
same,T/C,"dose: 50.0 mg/kg/injection, schedule: Q01DX009 (ip), vehicle: saline",99 % of control
same,T/C,"dose: 100.0 mg/kg/injection, schedule: Q01DX009 (ip), vehicle: saline",105 % of control
same,T/C,"dose: 200.0 mg/kg/injection, schedule: Q01DX009 (ip), vehicle: saline",101 % of control
same,T/C,"dose: 400.0 mg/kg/injection, schedule: Q01DX009 (ip), vehicle: saline",111 % of control and 101 % of control
same,T/C,"dose: 800.0 mg/kg/injection, schedule: Q01DX009 (ip), vehicle: saline",112 % of control
CCC(=O)Sc1ccccc1C(=O)Nc1ccc(Cl)cc1,T/C,[1],104 % of control
same,T/C,[2],117 % of control
same,T/C,[3],108 % of control
same,T/C,[4],115 % of control
CCSCCNC(=O)[C@@]1(O)[C@H](O)[C@]2(CC)C=CCN3CC[C@@]4(c5cc([C@@]6(OC(C)=O)C[C@H]7C=C(CC)CN(CCc8c6[nH]c6ccccc86)C7)c(OC)cc5N(C)[C@@H]14)[C@@H]32,T/C,"dose: 0.5 mg/kg/injection, schedule: Q01DX009 (ip), vehicle: water",164 % of control
CCO/C=C1\SC(=S)N(c2ccccc2C)C1=O,T/C,"dose: 12.5 mg/kg/injection, schedule: Q01DX009 (ip), vehicle: saline with Tween-80",111 % of control
same,T/C,[1],111 % of control
same,T/C,[2],108 % of control and 105 % of control
same,T/C,[3],109 % of control and 116 % of control
same,T/C,[4],112 % of control and 116 % of control
CCOC(=O)c1cn(C)c2c1C(O)=C(C(=O)OC)CC(=O)N2,T/C,[1],92 % of control
same,T/C,[2],96 % of control
same,T/C,[3],96 % of control
same,T/C,[4],96 % of control
same,T/C,"dose: 400.0 mg/kg/injection, schedule: Q01DX009 (ip), vehicle: saline with Tween-80",92 % of control
COc1ccc2c(c1OC(C)=O)-c1cc(OC(C)=O)cc3c1C(C2)N(C(=O)CN(CCCl)CCCl)CC3 (configuration not stated),T/C,"dose: 1.56 mg/kg/injection, schedule: Q04DX003 (ip), vehicle: DMSO",120 % of control
same,T/C,"dose: 3.13 mg/kg/injection, schedule: Q04DX003 (ip), vehicle: DMSO",120 % of control
same,T/C,"dose: 6.25 mg/kg/injection, schedule: Q04DX003 (ip), vehicle: DMSO",159 % of control
same,T/C,"dose: 12.5 mg/kg/injection, schedule: Q04DX003 (ip), vehicle: DMSO",150 % of control
same,T/C,"dose: 25.0 mg/kg/injection, schedule: Q04DX003 (ip), vehicle: DMSO",150 % of control
same,T/C,"dose: 50.0 mg/kg/injection, schedule: Q04DX003 (ip), vehicle: DMSO",170 % of control
CC1=C(CC/C(C)=C/CCC2=CCC(C3=CC(=O)OC3O)OC2O)C(C)(C)CCC1 (configuration not stated),T/C,"dose: 3.0 mg/kg/injection, schedule: Q01DX009 (ip), vehicle: Klucel (hydroxypropylcellulose) (HPC)",90 % of control
same,T/C,"dose: 6.0 mg/kg/injection, schedule: Q01DX009 (ip), vehicle: Klucel (hydroxypropylcellulose) (HPC)",90 % of control
O=C(NC(Cc1cccc(F)c1)C(=O)O)c1ccccc1 (configuration not stated),T/C,"dose: 6.25 mg/kg/injection, schedule: Q01DX009 (ip), vehicle: other",104 % of control
same,T/C,"dose: 12.5 mg/kg/injection, schedule: Q01DX009 (ip), vehicle: other",110 % of control
same,T/C,"dose: 25.0 mg/kg/injection, schedule: Q01DX009 (ip), vehicle: other",99 % of control
same,T/C,"dose: 50.0 mg/kg/injection, schedule: Q01DX009 (ip), vehicle: other",88 % of control
